Assays:
CCK-A receptor [1] = target: T1, CCK-A receptor (Cavia porcellus, UniProt Q63931); test: CCK-A antagonist activity, guinea pig isolated ileum longitudinal muscle myenteric plexus (inhibition of contractile activity of CCK-8); type: cell-based
T1 construct: guinea pig isolated ileum longitudinal muscle myenteric plexus preparation; from tissue; host or cells: guinea pig isolated ileum longitudinal muscle-myenteric plexus
T1 sequence (Q63931 1-430): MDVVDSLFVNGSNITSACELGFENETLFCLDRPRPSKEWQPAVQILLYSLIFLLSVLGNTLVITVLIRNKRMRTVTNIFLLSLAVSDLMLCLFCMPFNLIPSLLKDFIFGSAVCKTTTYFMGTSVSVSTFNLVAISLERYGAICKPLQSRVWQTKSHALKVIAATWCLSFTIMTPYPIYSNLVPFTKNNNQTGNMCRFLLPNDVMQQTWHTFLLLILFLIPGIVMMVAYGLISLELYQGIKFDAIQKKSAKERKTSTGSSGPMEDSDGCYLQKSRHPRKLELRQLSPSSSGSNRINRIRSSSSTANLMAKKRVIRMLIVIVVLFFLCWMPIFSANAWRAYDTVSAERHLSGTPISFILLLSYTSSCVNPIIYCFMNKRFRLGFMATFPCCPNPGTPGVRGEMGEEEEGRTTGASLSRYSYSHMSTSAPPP
Method: The preparation and use of guinea-pig isolated ileum longitudinal muscle-myenteric plexus has been described by K-H Buchheit et al in Nauyn-Schmeideberg's Arch. Pharmacol, (1985), 329, p36-41 and by V. L. Lucaites et al (1991) in J. Pharmacol. Exp. Ther., 256, 695-703.
The CCK-A antagonist and CCK-B antagonist activities of compounds of the invention were determined using the guinea pig isolated ileum longitudinal muscle myenteric plexus preparation. The compounds were tested using the procedure G Dal
Forno et al J. Pharmacol. Exp & Ther. 261-1056-1063 1992 and the pKb value for each compound was determined.

CCK-B receptor = target: T2, CCK-B receptor (Cavia porcellus, UniProt H0VZC5); test: CCK receptor binding, CCK-B (guinea pig cortex assay)
T2 construct: CCK-B receptor (guinea pig cortex assay); from tissue; host or cells: guinea pig cortex
T2 sequence (H0VZC5 entry or part of it): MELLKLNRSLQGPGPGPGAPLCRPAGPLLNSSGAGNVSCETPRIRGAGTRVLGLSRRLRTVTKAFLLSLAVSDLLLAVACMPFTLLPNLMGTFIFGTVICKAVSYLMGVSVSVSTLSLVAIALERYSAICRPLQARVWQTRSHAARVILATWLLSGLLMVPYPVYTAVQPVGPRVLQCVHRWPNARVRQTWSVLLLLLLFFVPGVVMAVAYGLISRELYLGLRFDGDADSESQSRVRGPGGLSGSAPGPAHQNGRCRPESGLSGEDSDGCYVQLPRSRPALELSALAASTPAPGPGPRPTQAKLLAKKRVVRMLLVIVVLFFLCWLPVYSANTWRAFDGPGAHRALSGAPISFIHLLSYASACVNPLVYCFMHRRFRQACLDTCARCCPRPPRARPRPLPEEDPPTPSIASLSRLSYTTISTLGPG
Method: (§1) The greater affinity of the compounds of the invention for the CCK-B receptor over the CCK-A receptor has also been established using the CCK receptor binding assays described by G. Dal Fornos et al., J. Pharmcol. Exp & Ther. 261, 1056-1063, 1992.
(§2) The binding affinity of the compounds of the invention for the CCK-A receptor (Pancreas Assay) and CCK-B receptor (guinea pig cortex assay) was determined using the procedure of G Dal Forno et al J. Pharmacol. Exp & Ther. 261-1056-1063. The pKi values determined with representative compounds of invention were as follows: […]

CCK-A receptor [2] = test: CCK receptor binding, CCK-A (Pancreas Assay)
Method: as §1, §2

mice and rats [3] = test: Toxicity / untoward effects on oral administration to mice and rats; type: in vivo; conditions: orally to mice and rats at doses exhibiting anxiolytic activity
Description: (§3) The compounds of the invention are essentially non-toxic and therapeutically useful doses.

mice and rats [4] = test: Anxiolytic activity, oral, mice and rats; type: in vivo; conditions: orally to mice and rats
Description: as §3

Row | SMILES | pKi CCK-A (CCK-A receptor [2]) | other results
1 | CC(C)CCN1C(=O)C(NC(=O)Nc2ccccc2)C(=O)N(c2ccccc2)c2ccccc21 (single isomer, unassigned; (+)) [Example 26, (+)-N-[2,4-Dioxo-5-phenyl-1-(3-methylbut-1-yl)-2,3,4,5-tetrahydro-1H-1,5-benzodiazepin-3-yl]-N'-phenylurea] | – | Kb (CCK-A receptor [1]; read-out: pKb CCK-A (converted)): ≥ 3160 nM
2 | CC(C)CCN1C(=O)C(NC(=O)Nc2cccc(N(C)C)c2)C(=O)N(c2ccccc2F)c2ccccc21 (single isomer, unassigned; (+)) [Example 27, (+)-N-[2,4-Dioxo-5-(2-fluorophenyl)-1-(3-methylbut-1-yl)-2,3,4,5-tetrahydro-1H-1,5-benzodiazepin-3-yl]-N'-[3-(N,N-dimethylamino)phenyl]urea] | 6.83 | Ki (CCK-B receptor): 0.288 nM
3 | O=C(Nc1ccccc1)NC1C(=O)N(CC23CC4CC(CC(C4)C2)C3)c2ccccc2N(c2ccccc2)C1=O (single isomer, unassigned; (+)) [Example 45, (+)-N-[1-(Adamantanmethyl)-2,4-dioxo-5-phenyl-2,3,4,5-tetrahydro-1H-1,5-benzodiazepin-3-yl]-N'-phenylurea] | 5.95 | untoward effects (mice and rats [3]): no untoward effects were observed; anxiolytic activity (mice and rats [4]): exhibits anxiolytic activity
4 | CC(C)CCN1C(=O)C(NC(=O)Nc2cccc(N(C)C)c2)C(=O)N(c2ccccc2F)c2ccccc21 (centres unmarked) [Example 4, N-[2,4-dioxo-5-(2-fluorophenyl)-1-(3-methylbut-1-yl)-2,3,4,5-tetrahydro-1H-1,5-benzodiazepin-3-yl]-N'-(3-dimethylamino)phenylurea] | 6.9 | –
5 | CC(C)(C)C(O)CN1C(=O)C(NC(=O)Nc2ccccc2)C(=O)N(c2ccccc2F)c2ccccc21 (centres unmarked) [Example 7A, N-[1-(3,3-Dimethyl-2-hydroxybut-1-yl)-2,4-dioxo-5-(2-fluorophenyl)-2,3,4,5-tetrahydro-1H-1,5-benzodiazepin-3-yl]-N'-phenylurea] | 6.33 | –
6 | CC(C)CCN1C(=O)C(NC(=O)Nc2ccccc2)C(=O)N(c2ccccc2)c2cc(Cl)ccc21 (centres unmarked) [Example 9, N-[7-Chloro-2,4-dioxo-1-(3-methylbut-1-yl)-5-phenyl-2,3,4,5-tetrahydro-1H-1,5-benzodiazepin-3-yl]-N'-phenylurea] | 6.02 | –
7 | CC(C)CCN1C(=O)C(NC(=O)Nc2ccccc2)C(=O)N(c2ccccc2)c2cc(Cl)c(Cl)cc21 (centres unmarked) [Example 11, N-[7,8-dichloro-2,4-Dioxo-1-(3-methylbut-1-yl)-5-phenyl-2,3,4,5-tetrahydro-1H-1,5-benzodiazepin-3-yl]-N'-phenylurea] | 5.80 | –
8 | O=C(Nc1ccccc1)NC1C(=O)N(CC23CC4CC(CC(C4)C2)C3)c2ccccc2N(c2ccccc2)C1=O (centres unmarked) [Example 14, N-[1-(1-Adamantyl)methyl-2,4-dioxo-5-phenyl-2,3,4,5-tetrahydro-1H-1,5-benzodiazepin-3-yl]-N'-phenylurea] | 6.15 | –
9 | CC(C)(C)CCN1C(=O)C(NC(=O)Nc2ccccc2)C(=O)N(c2ccccc2)c2ccccc21 (centres unmarked) [Example 16, N-[1-(3,3-Dimethylbutyl)-2,4-dioxo-5-phenyl-2,3,4,5-tetrahydro-1H-1,5-benzodiazepin-3-yl]-N'-phenylurea] | 6.95 | –
10 | CC(C)CCN1C(=O)C(NC(=O)Nc2ccccc2)C(=O)N(c2ccccc2)c2ccccc21 (centres unmarked) [Example 25, N-[2,4-Dioxo-5-phenyl-1-(3-methylbut-1-yl)-2,3,4,5-tetrahydro-1H-1,5-benzodiazepin-3-yl]-N'-phenylurea] | – | pKb CCK-A (CCK-A receptor [1]): < 6.0
11 | CN(C)c1ccc(NC(=O)NC2C(=O)N(CCC3CCCC3)c3ccccc3N(c3ccccc3F)C2=O)cc1 (centres unmarked) [Example 30, N-[1-(2-cyclopentyl-ethyl)-2,4-dioxo-5-(2-fluorophenyl)-2,3,4,5-tetrahydro-1H-1,5-benzodiazepin-3-yl]-N'-[4-(dimethylamino)phenyl]urea] | 7.00 | –
12 | O=C(Nc1ccccc1)NC1C(=O)N(CC2CC3C=CC2C3)c2ccccc2N(c2ccccc2)C1=O (centres unmarked) [Example 31, N-[1-(Bicyclo[2.2.1]-5-heptene-2-ylmethyl)-2,4-dioxo-5-phenyl-2,3,4,5-tetrahydro-1H-1,5-benzodiazepin-3-yl]-N'-phenylurea] | 6.76 | –
13 | O=C(Nc1cccc([N+](=O)[O-])c1)NC1C(=O)N(CC23CC4CC(CC(C4)C2)C3)c2ccccc2N(c2ccccc2)C1=O (centres unmarked) [Example 39, N-[1-(1-Adamantylmethyl)-2,4-dioxo-5-phenyl-2,3,4,5-tetrahydro-1H-1,5-benzodiazepin-3-yl]-N'-(3-nitrophenyl)urea] | 6.52 | –
14 | CCOC(=O)c1cccc(NC(=O)NC2C(=O)N(CC34CC5CC(CC(C5)C3)C4)c3ccccc3N(c3ccccc3)C2=O)c1 (centres unmarked) [Example 41, N-[1-(1-Adamantylmethyl)-2,4-dioxo-5-phenyl-2,3,4,5-tetrahydro-1H-1,5-benzodiazepin-3-yl]-N'-(3-ethoxycarbonylphenyl)urea] | 6.09 | –
